Measurements taken from patent publication US10307413B2, “Tetrahydro- and dihydro-isoquinoline PRMT5 inhibitors and uses thereof” (Epizyme, Inc., priority 2013, dated 2019).

How the values were obtained:
[1] = test system: symmetric di-methyl arginine in Z-138 cells; assay: Z-138 Methylation Assay (In Cell Western for symmetric di-methyl arginine and DNA content); assay type: cell-based; conditions: Homo sapiens, read-out: ICW EC50
How it was run: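 Z-138 cells (50,000 cells/mL) treated with compound 96 h at 37 °C, then fixed and stained for symmetric di-methyl arginine (800 nm) with DRAQ5 DNA counterstain (700 nm) on Licor Odyssey.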

Z-138 cell line = assay: Z-138 Proliferation Assay (Cell Titer Glo, 5 days); assay type: cell-based; conditions: Homo sapiens, 120 h; Z-138 cells, 5 days; read-out: Proliferation EC50
How it was run: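 Z-138 cells exposed 5 days at 37 °C, 5% CO2 to nine-point 3-fold dilutions (final top 20 μM, 0.2% DMSO), in triplicate. Viability read as ATP by CellTiter-Glo luminescence; IC50 from 4-parameter fit of normalized dose-response curves.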

Row | Structure (SMILES) | EC50 [1] | EC50 (Z-138 cell line)
1 | O=C(NC[C@@H](O)CN1CCc2ccccc2C1)c1cccc(-c2ccccn2)c1 [Compound 19] | 0.101 to 1 µM | 10 to 50 µM
2 | O=C(NC[C@H](O)CN1CCc2ccccc2C1)c1cc2ccccc2o1 [Compound 271] | 0.101 to 1 µM | 1 to 10 µM
3 | O=C(NC[C@H](O)CN1CCc2ccccc2C1)c1ccnc(NCCNCC(F)(F)F)c1 [Compound 316] | < 0.1 µM | 1 to 10 µM
4 | CC(=O)NCCN1CCN(Cc2cccc(C(=O)NCC(O)CN3CCc4ccccc4C3)c2)CC1 (stereo not drawn) [Compound 156] | 0.101 to 1 µM | 1 to 10 µM
5 | O=C(NC[C@H](O)CN1CCc2ccccc2C1)c1cc(NC2CNC2)ncn1 [Compound 280] | < 0.1 µM | 0.101 to 1 µM
6 | O=C(NC[C@H](O)CN1CCc2ccccc2C1)c1cc(NC2CCOC2)ncn1 (stereo partly drawn) [Compound 230] | < 0.1 µM | 0.101 to 1 µM
7 | COc1ccc(C(=O)NCC(O)CN2CCc3ccccc3C2)cc1NC1CCOCC1 (stereo not drawn) [Compound 67] | 0.101 to 1 µM | 10 to 50 µM
8 | CN1CCC(Nc2cc(C(=O)NC[C@H](O)CN3CCc4ccccc4C3)ncn2)C1 (stereo partly drawn) [Compound 181] | 0.101 to 1 µM | 1 to 10 µM
9 | O=C(NCC(O)CN1CCc2ccccc2C1)c1ccc(NC2CCOCC2)cc1 (stereo not drawn) [Compound 66] | 0.101 to 1 µM | 1 to 10 µM
10 | O=C(NC[C@H](O)CN1CCc2ccccc2C1)c1ccnc(OC2CCNCC2)c1 [Compound 229] | < 0.1 µM | 1 to 10 µM
11 | C[C@@H]1CC(Nc2cccc(C(=O)NC[C@H](O)CN3CCc4ccccc4C3)c2)CCO1 (stereo partly drawn) [Compound 168] | < 0.1 µM | 0.101 to 1 µM
12 | Cn1nccc1C(=O)NCC(O)CN1CCc2ccccc2C1 (stereo not drawn) [Compound 150] | 0.101 to 1 µM | > 20 µM
13 | COCCN1CCN(Cc2cccc(C(=O)NCC(O)CN3CCc4ccccc4C3)c2)CC1 (stereo not drawn) [Compound 114] | 0.101 to 1 µM | 10 to 50 µM
14 | O=C(NCC(O)CN1CCc2ccccc2C1)c1cc(NC2CCOCC2)n[nH]1 (stereo not drawn) [Compound 169] | 0.101 to 1 µM | 1 to 10 µM
15 | CC(C)N1CCC(Nc2ccc(C(=O)NCC(O)CN3CCc4ccccc4C3)cc2)CC1 (stereo not drawn) [Compound 140] | < 0.1 µM | 1 to 10 µM
16 | CS(=O)(=O)N1CCC(Oc2ccc(C(=O)NCC(O)CN3CCc4ccccc4C3)cc2)C1 (stereo not drawn) [Compound 198] | < 0.1 µM | 0.101 to 1 µM
17 | O=C(NC[C@H](O)CN1CCc2ccccc2C1)c1cncc(NC2CCOCC2)c1 [Compound 298] | < 0.1 µM | 0.101 to 1 µM
18 | O=C(NCC(O)CN1CCc2ccccc2C1)c1ccc(-n2cncn2)cc1 (stereo not drawn) [Compound 110] | < 0.1 µM | 1 to 10 µM
19 | CC(=O)N1CCC(Nc2cc(C(=O)NC[C@H](O)CN3CCc4ccccc4C3)ccn2)C1 (stereo partly drawn) [Compound 228] | < 0.1 µM | 0.101 to 1 µM
20 | CN1CCN(Cc2cccc(C(=O)NCC(O)CN3CCc4ccccc4C3)c2)CC1CO (stereo not drawn) [Compound 253] | 0.101 to 1 µM | 1 to 10 µM
21 | O=C(NC[C@H](O)CN1CCc2ccccc2C1)c1cccc(-c2ccccn2)c1 [Compound 20] | < 0.1 µM | 0.101 to 1 µM
22 | CS(=O)(=O)N1CC(Nc2cc(C(=O)NC[C@H](O)CN3CCc4ccccc4C3)ncn2)C1 [Compound 283] | < 0.1 µM | 0.101 to 1 µM
23 | O=C(NC[C@H](O)CN1CCc2ccccc2C1)c1ccnc(NCc2ccncc2)c1 [Compound 189] | < 0.1 µM | 0.101 to 1 µM
24 | CS(=O)(=O)N1CCC(Nc2cc(C(=O)NC[C@H](O)CN3CCc4ccccc4C3)ncn2)C1 (stereo partly drawn) [Compound 257] | < 0.1 µM | 1 to 10 µM
25 | O=C(NC[C@H](O)CN1CCc2ccccc2C1)c1ccnc(NCc2cccnc2)c1 [Compound 190] | < 0.1 µM | 0.101 to 1 µM
26 | CC(=O)N1CCC(Oc2cc(C(=O)NC[C@H](O)CN3CCc4ccccc4C3)ncn2)CC1 [Compound 287] | < 0.1 µM | 0.101 to 1 µM
27 | CN(CCOc1cccc(C(=O)NCC(O)CN2CCc3ccccc3C2)c1)CC(N)=O (stereo not drawn) [Compound 277] | < 0.1 µM | 1 to 10 µM

Row | Structure (SMILES) | EC50 [1] | EC50 (Z-138 cell line)
28 | O=C(NCC(O)CN1CCc2ccccc2C1)c1cccc(NC2CCOCC2)c1F (stereo not drawn) [Compound 79] | < 0.1 µM | 0.101 to 1 µM
29 | CN1CCC(N(C)c2cccc(C(=O)NCC(O)CN3CCc4ccccc4C3)c2)C1 (stereo not drawn) [Compound 132] | 0.101 to 1 µM | 1 to 10 µM
30 | CS(=O)(=O)N1CC[C@H](Nc2cccc(C(=O)NC[C@H](O)CN3CCc4ccccc4C3)c2)C1 [Compound 268] | < 0.1 µM | 0.101 to 1 µM
31 | O=C(NCC(O)CN1CCc2ccccc2C1)c1ccc(-c2ccccn2)cc1 (stereo not drawn) [Compound 13, N-(3-(3,4-dihydroisoquinolin-2(1H)-yl)-2-hydroxypropyl)-4-(pyridin-2-yl)benzamide] | < 0.1 µM | 0.101 to 1 µM
32 | O=C(NCC(O)CN1CCc2ccccc2C1)c1cccc(CN2CCN(CC(F)(F)F)CC2)c1 (stereo not drawn) [Compound 92] | < 0.1 µM | 1 to 10 µM
33 | O=C(NC[C@H](O)CN1CCc2ccccc2C1)c1cc(NC2CCNCC2)ncn1 [Compound 180] | 0.101 to 1 µM | 10 to 50 µM
34 | O=C(NCC(O)CN1CCc2ccccc2C1)c1cccc(NC2CCOCC2)c1 (stereo not drawn) [Compound 16, N-(3-(3,4-dihydroisoquinolin-2(1H)-yl)-2-hydroxypropyl)-3-((tetrahydro-2H-pyran-4-yl)amino)benzamide] | < 0.1 µM | 0.101 to 1 µM
35 | O=C(NCC(O)CN1CCc2ccccc2C1)c1cccc(C2CCOC2)c1 (stereo not drawn) [Compound 154] | 0.101 to 1 µM | 1 to 10 µM
36 | CN1CCC(c2cccc(C(=O)NCC(O)CN3CCc4ccccc4C3)c2)C1 (stereo not drawn) [Compound 38, N-(3-(3,4-dihydroisoquinolin-2(1H)-yl)-2-hydroxypropyl)-3-(1-methylpyrrolidin-3-yl)benzamide] | 0.101 to 1 µM | 10 to 50 µM
37 | O=C(NC[C@H](O)CN1CCc2ccccc2C1)c1cncc(OC2CCNCC2)c1 [Compound 260] | 0.101 to 1 µM | > 20 µM
38 | O=C(NC[C@H](O)CN1CCc2ccccc2C1)c1cccc2[nH]cnc12 [Compound 241] | 0.101 to 1 µM | 1 to 10 µM
39 | CN1CCC(N(C)c2cccc(C(=O)NCC(O)CN3CCc4ccccc4C3)c2)CC1 (stereo not drawn) [Compound 131] | 0.101 to 1 µM | 1 to 10 µM
40 | O=C(NC[C@H](O)CN1CCc2ccccc2C1)c1ccnc(NCC2CC2)c1 [Compound 187] | < 0.1 µM | 0.101 to 1 µM
41 | O=C(NCC(O)CN1CCc2ccccc2C1)c1cc(Cl)cc(NC2CCOCC2)c1 (stereo not drawn) [Compound 64] | 0.101 to 1 µM | 1 to 10 µM
42 | O=C(NCC(O)CN1CCc2ccccc2C1)c1cccc(NC2CCOCC2)n1 (stereo not drawn) [Compound 73] | < 0.1 µM | 1 to 10 µM
43 | CS(=O)(=O)N1CCC(Oc2cccc(C(=O)NCC(O)CN3CCc4ccccc4C3)c2)C1 (stereo not drawn) [Compound 162] | < 0.1 µM | 1 to 10 µM
44 | O=C(NC[C@H](O)CN1CCc2ccccc2C1)c1cccc(NC2CCN(CC(F)(F)F)CC2)c1 [Compound 217] | < 0.1 µM | 0.101 to 1 µM
45 | [2H]C1([2H])Cc2ccccc2C([2H])([2H])N1C[C@@H](O)CNC(=O)c1cc(NC2COC2)ncn1 [Compound 337] | < 0.1 µM | 0.101 to 1 µM
46 | CN1CCC(Oc2cc(C(=O)NC[C@H](O)CN3CCc4ccccc4C3)ccn2)CC1 [Compound 202] | < 0.1 µM | 1 to 10 µM
47 | O=C(NCC(O)CN1CCc2ccccc2C1)c1ccc(CN2CCOCC2)cc1 (stereo not drawn) [Compound 145] | < 0.1 µM | 1 to 10 µM
48 | O=C(NC[C@@H](O)CN1CCc2ccccc2C1)c1cc(NC2COC2)ncn1 [Compound 336] | 0.101 to 1 µM | 10 to 50 µM
49 | CC(c1cccc(C(=O)NCC(O)CN2CCc3ccccc3C2)c1)N1CCN(C)CC1 (stereo not drawn) [Compound 161] | < 0.1 µM | 1 to 10 µM
50 | Cn1nc(C(=O)NCC(O)CN2CCc3ccccc3C2)cc1NC1CCOCC1 (stereo not drawn) [Compound 312] | 0.101 to 1 µM | 1 to 10 µM
51 | O=C(NCC(O)CN1CCc2ccccc2C1)c1cccc(C2CCOCC2)c1 (stereo not drawn) [Compound 99] | < 0.1 µM | 1 to 10 µM
52 | CN1CCC(Oc2cncc(C(=O)NC[C@H](O)CN3CCc4ccccc4C3)c2)CC1 [Compound 288] | < 0.1 µM | < 0.1 µM
53 | CCN(c1cccc(C(=O)NCC(O)CN2CCc3ccccc3C2)c1C)C1CCOCC1 (stereo not drawn) [Compound 41] | < 0.1 µM | 1 to 10 µM
54 | O=C(NC[C@H](O)CN1CCc2ccccc2C1)c1cnc2ccccc2c1 [Compound 317] | < 0.1 µM | 0.101 to 1 µM
